Test results published in patent US20130072424A1, “COMPOUNDS AND METHODS FOR PEPTIDE RIBONUCLEIC ACID CONDENSATE PARTICLES FOR RNA THERAPEUTICS” (MARINA BIOTECH, INC., priority 2005, published 2013).
Ends that are not written are not given here. Peptide text beside a SMILES is read from it. * marks the point of attachment. 5FAM = O=C1OC2(c3ccc(O)cc3Oc3cc(O)ccc32)c2ccc(C(=O)*)cc21

Legend:
[1] = tested on: mouse tail fibroblast (MTF) cells; assay: Polypeptide mediated siRNA delivery screen (Cy5-siRNA cell-uptake and MFI), Example 17; format: cell-based; conditions: for MFI measurement relative to the PN643 positive control, in words / MFI measurement relative to the positive control: Cy5-conjugated siRNA; for percent siRNA cell-uptake activity (Table 24): Cy5 conjugated LC20 siRNA, concentration not given
Experimental: siRNA uptake by cells was assessed by flow cytometry (refer to Example 2 for details). Uptake was expressed as a percentage calculated by dividing the number of cells containing Cy5-conjugated siRNA by the total number of transfected and untransfected cells in culture. Mean Fluorescence Intensity (MFI) was measured by flow cytometry and determined the amount of Cy5-conjugated siRNA found within cells. The MFI value directly correlates with the amount of Cy5-conjugated siRNA within the cell, thus, a higher MFI value indicates a greater number of Cy5-conjugated siRNA within the cells.

[2] = tested on: hTNF-α mRNA; assay: Knockdown of hTNF-α gene expression by siRNA/peptide complexes in LPS-stimulated human monocytes (branch DNA mRNA); format: cell-based; conditions: for siRNA Knockdown Activity: 20 nM siRNA; for siRNA knockdown activity of TNF-α mRNA, in words: siRNAs A19S21, 21/21 and LC20; for KD: knockdown of hTNF-α mRNA vs Qneg, siRNAs A19S21, 21/21, LC20 at 20 nM, molar ratio 1 to 5
Experimental: Specifically, the ability of siRNA/peptide complexes to modulate expression of the human tumor necrosis factor-α (hTNF-α) gene was assessed. The significance of targeting the hTNF-α gene is that it is implicated in mediating the occurrence or progression of rheumatoid arthritis (RA) when over-expressed in human and other mammalian subjects.
Human monocytes were used as a model system to determine the effect of siRNA/peptide complexes on hTNF-α gene expression. Qneg represents a random siRNA sequence and functioned as the negative control. […] A19S21, 21/21 and LC20 are siRNAs that target hTNF-α mRNA.
Healthy human blood was purchased from Golden West Biologicals (CA), the peripheral blood mononuclear cells (PBMC) were purified from the blood using Ficoll-Pague plus (Amersham) gradient. Human monocytes were then purified from the PBMCs fraction using magnetic microbeads from Miltenyi Biotech. Isolated human monocytes were resuspended in IMDM supplemented with 4 mM glutamine, 10% FBS, 1× non-essential amino acid and 1× pen-strep, and stored at 4 C until use.
In a 96 well flat bottom plate, human monocytes were seeded at 100 K/well/100 μl in OptiMEM medium (Invitrogen). Exemplary polynucleotide delivery-enhancing polypeptides were mixed with 20 nM siRNA at a molar ratio of 1 to 5 in OptiMEM medium at room temperature for 5 minutes. At the end of incubation, FBS was added to the mixture (final 3%), and 50 μl of the mixture was added to the cells. The cells were incubated at 37° C. for 3 hours. After incubation, the cells were transferred to V-bottom plate and pelleted at 1500 rpm for 5 min. The cells were resuspended in growth medium (IMDM with glutamine, non-essential amino acid, and pen-strep). After an overnight incubation, the monocytes were stimulated by application of LPS (Sigma) at 1 ng/ml for 3 hours to increase expression of TNF-α expression levels. After induction by LPS, cells were collected as above for mRNA quantification, and supernatant was saved for protein quantification if desired.
For mRNA measurement, branch DNA technology from Genospectra (CA) was used according to manufacturer's specification. To quantitate mRNA level in the cells, both house keeping gene (cypB) and target gene (TNF-α) mRNA were measured, and the reading for TNF-α was normalized with cypB to obtain relative luminescence unit. […]

[3] = tested on: primary mouse tail fibroblast (MTF) cells; assay: Peptide cell-uptake assay (FITC-labeled peptide, flow cytometry); format: cell-based; conditions: peptide 10 μM; for Peptide FITC MFI: relative values
Experimental: The efficacy of the full-length and truncated forms of polypeptide PN73 to enter cells was tested in vitro by a cell-uptake assay with primary mouse tail fibroblast (MTF) cells. The number of cells in culture that receive the FITC-labeled peptide was measured by flow cytometry. The percentage peptide cell-uptake was expressed relative to the total number of cells present in the culture. In addition, the Mean Fluorescence Intensity (MFI) was used to evaluate the quantity of FITC-labeled peptide found within cells. MFI directly correlates with the amount of FITC-labeled peptide within the cell: higher relative MFI value correlates with a greater amount of intracellular FITC-labeled peptides. Peptides were evaluated at 0.63 μM, 2.5 μM and 10 μM concentrations; PN768 was tested at 2 μM, 10 μM and 50 μM. […]

[4] = tested on: mouse tail fibroblast (MTF) cells; assay: siRNA cell-uptake assay and MFI (Cy5-conjugated siRNA, flow cytometry), Examples 14-16; format: cell-based; conditions: for % siRNA Cell-Uptake / siRNA Cy5 MFI: peptide 10 μM; for siRNA Cy5 MFI: relative values
Experimental: As described above, the cell-uptake assay determines the number of cells that receive Cy5-conjugated siRNA when complexed with a peptide. siRNA cell-uptake was assessed by flow cytometry (refer to Example 2 for details). Uptake was expressed as a percentage calculated by dividing the number of cells containing Cy5-conjugated siRNA by the total number of transfected and untransfected cells in culture. Mean Fluorescence Intensity (MFI) was measured by flow cytometry and determined the amount of Cy5-conjugated siRNA found within cells. The MFI value directly correlates with the amount of Cy5-conjugated siRNA within the cell, thus, a higher MFI value indicates a greater number of Cy5-conjugated siRNA within the cells.
The siRNA cell-uptake assay and MFI measurements were performed as described previously in Examples 2 and 3. […]

[5] = tested on: human monocytes; assay: Cytotoxicity with human monocytes; format: cell-based
[6] = in vitro; conditions: mouse, mouse tail fibroblast (MTF) cells
Experimental: Fluorescence activated cell sorting (FACS) analysis were performed using Beckman Coulter FC500 cell analyzer (Fullerton, Calif.). The instrument was adjusted according to the fluorescence probes used (FAM or Cy5 for siRNA and FITC and PE for CD14). Propidium iodide (Fluka, St Louis) and AnnexinV (R&D systems, Minneapolis) were used as indicators for cell viability and cytotoxicity. A brief step-by-step protocol is detailed below. • (a) After exposure to the complex of siRNA/peptide, cells were incubated for at least 3 hours. • (b) Wash cells with 200 μl PBS. • (c) Detach cells with 15 μl TE, incubate at 370 C. • (d) Re-suspend cells in five wells with 30 μl FACS solution (PBS with 0.5% BSA, and 0.1% sodium Azide). • (e) Combine all five wells into a tube. • (f) Add PI (Propidium iodide) 5 μl into each tube. • (g) Analyze the cells with fluorescence activated cell sorting (FCAS) according to manufacturer's instructions.
For siRNA uptake analysis, cells were washed with PBS, treated with trypsin (attached cells only), and then analyzed by flow cytometry. […] In order to differentiate the cellular uptake from the membrane insertion of fluorescence labeled siRNA, trypan blue was used to quench the fluorescence on the cell membrane surface.
FITC-tagged peptides were diluted in Opti-MEM® media (Invitrogen) for about 5 minutes at room temperature and then added to cells. Cells were transfected for 3 hours at and washed with PBS, treated with trypsin, and then analyzed by flow cytometry. Cell viability was determined as above. Cellular uptake was distinguished from the membrane insertion using trypan blue to quench any fluorescence on the cell membrane surface.

[7] = siRNA 21/21 MD8, siRNA:Peptide Ratio 1:5, human monocytes
[8] = siRNA 21/21 MD8, siRNA:Peptide Ratio 1:10, human monocytes
[9] = siRNA A19S21 MD8, siRNA:Peptide Ratio 1:5, human monocytes
[10] = siRNA A19S21 MD8, siRNA:Peptide Ratio 1:10, human monocytes
[11] = siRNA LC20, siRNA:Peptide Ratio 1:5, human monocytes
[12] = siRNA LC20, siRNA:Peptide Ratio 1:10, human monocytes

Compound: KETWWETWWTEWSQPKKKRKV-amide (KETWWETWWTEWSQPKKKRKV-NH2) [PN682, Pep-1]
- MFI measurement relative to the PN643 positive control, in words [1]: comparable

Compound: LGLLLRHLRHHSNLLANIPRKKRRQRRRPP-amide (LGLLLRHLRHHSNLLANIPRKKRRQRRRPP-NH2) [PN759]
- MFI measurement relative to the positive control [1]: ~6 fold

Compound: RSVCRQIKICRRRGGCYYKCTNRPY-amide (RSVCRQIKICRRRGGCYYKCTNRPY-NH2; cysteine pairing not given here) [PN680, Androctonin]
- MFI measurement relative to the PN643 positive control, in words [1]: comparable
- hTNF-α mRNA knockdown relative to the Qneg/PN680 control complex, in words ([2]; any of the hTNF-α specific siRNAs at a 1:5 ratio): significant knockdown activity
- siRNA Knockdown Activity [2, 7]: + (the peptide/siRNA complex had knockdown activity of 80% of the Qneg negative control siRNA (20% reduction in mRNA levels compared to the Qneg negative control))
- siRNA Knockdown Activity [2, 8]: +/− (the peptide/siRNA complex had a knockdown activity of approximately 90% of the Qneg negative control siRNA (10% reduction in mRNA levels compared to the Qneg negative control))
- siRNA Knockdown Activity [2, 9]: + (the peptide/siRNA complex had knockdown activity of 80% of the Qneg negative control siRNA (20% reduction in mRNA levels compared to the Qneg negative control))
- siRNA Knockdown Activity [2, 10]: +/− (the peptide/siRNA complex had a knockdown activity of approximately 90% of the Qneg negative control siRNA (10% reduction in mRNA levels compared to the Qneg negative control))
- siRNA Knockdown Activity [2, 11]: + (the peptide/siRNA complex had knockdown activity of 80% of the Qneg negative control siRNA (20% reduction in mRNA levels compared to the Qneg negative control))
- siRNA Knockdown Activity [2, 12]: + (the peptide/siRNA complex had knockdown activity of 80% of the Qneg negative control siRNA (20% reduction in mRNA levels compared to the Qneg negative control))

Compound: KRSRKESYSVYVYKVLKQ-GK[EPSILON-5CFG-amide (KRSRKESYSVYVYKVLKQG-{K(5CF)-Gly-NH2}) [PN654]
- % Peptide Cell-Uptake [3]: 95 (10 μM) %
- Peptide FITC MFI [3]: 10 (10 μM)
- % siRNA Cell-Uptake [4]: 27 (10 μM) %
- siRNA Cy5 MFI [4]: 14 (10 μM)
- siRNA knockdown activity of TNF-α mRNA, in words ([2]; human monocytes): moderate knockdown activity for both the A19S21 and 21/21 siRNAs but not for the LC20 siRNA

Compound: GTAMRILGGVIPRKKRRQRRRPPQ-amide (GTAMRILGGVIPRKKRRQRRRPPQ-NH2) [PN734, m-Calpain + TAT]
- MFI measurement relative to the PN643 positive control, in words [1]: significantly lower

Compound: KKKKKRFSFKKSFKLSGFSFKKNKK-amide (KKKKKRFSFKKSFKLSGFSFKKNKK-NH2) [PN681, MARCKS]
- MFI measurement relative to the PN643 positive control, in words [1]: double
- hTNF-α knockdown relative to Qneg complexed with the same polypeptide, in words ([2]; all three siRNAs, ratios of 1:5 and 1:10, human monocytes): little to no knockdown activity
- siRNA Knockdown Activity [2, 7]: −
- siRNA Knockdown Activity [2, 8]: −
- siRNA Knockdown Activity [2, 9]: +/− (the peptide/siRNA complex had a knockdown activity of approximately 90% of the Qneg negative control siRNA (10% reduction in mRNA levels compared to the Qneg negative control))
- siRNA Knockdown Activity [2, 10]: +/− (the peptide/siRNA complex had a knockdown activity of approximately 90% of the Qneg negative control siRNA (10% reduction in mRNA levels compared to the Qneg negative control))
- siRNA Knockdown Activity [2, 11]: −
- siRNA Knockdown Activity [2, 12]: −

Compound: RKESYSVYVYKVLKQ-NH2 [PN766]
- cytotoxicity effects [5]: No cytotoxicity effects were observed

Compound: RQIKIWFQNRRMKWKK-amide (RQIKIWFQNRRMKWKK-NH2) [PN694, Penetratin]
- MFI measurement relative to the PN643 positive control, in words [1]: significantly lower
- percent siRNA cell-uptake activity (Table 24) [1]: 54%

Compound: SYSVYVYKVLKQ-GK[EPSILON-5CFG-amide (SYSVYVYKVLKQG-{K(5CF)-Gly-NH2}) [PN653]
- % Peptide Cell-Uptake [3]: 95 (10 μM) %
- Peptide FITC MFI [3]: 8 (10 μM)
- % siRNA Cell-Uptake [4]: 1.7 (10 μM) %
- siRNA Cy5 MFI [4]: 4 (10 μM)
- KD ([2]; human monocytes): −

Compound: RKKRRQRRRPPVAYISRGGVSTYYSDTVKGRFTRQKYNKRA-amide (RKKRRQRRRPPVAYISRGGVSTYYSDTVKGRFTRQKYNKRA-NH2) [PN760, TAT + Peptide P3a]
- MFI measurement relative to the positive control [1]: approximately 13 fold

Compound: CC(C)C[C@H](NC(=O)[C@@H](NC(=O)[C@H](CCCCN)NC(=O)[C@H](Cc1ccc(O)cc1)NC(=O)[C@@H](NC(=O)[C@H](Cc1ccc(O)cc1)NC(=O)[C@@H](NC(=O)[C@H](CO)NC(=O)[C@H](Cc1ccc(O)cc1)NC(=O)[C@H](CO)NC(=O)[C@H](CCC(=O)O)NC(=O)[C@H](CCCCN)NC(=O)[C@@H](N)CCCNC(=N)N)C(C)C)C(C)C)C(C)C)C(=O)N[C@@H](CCCCN)C(=O)N[C@@H](CCC(N)=O)C(=O)NCC(=O)N[C@@H](CCCCNC(=O)c1ccc2c(c1)C(=O)OC21c2ccc(O)cc2Oc2cc(O)ccc21)C(=O)NCC(N)=O [PN708] (H-RKESYSVYVYKVLKQGK(5FAM)G-NH2)
- % Peptide Cell-Uptake [3]: 97 (10 μM) %
- Peptide FITC MFI [3]: 10 (10 μM)
- amount of Cy5-siRNA delivered into cells compared to the full-length PN73 (PN690) peptide [4]: about doubled
- maximum siRNA cell-uptake activity ([4]; Cy5-LC20 siRNA, PN708 at 80 μM): 95%
- % siRNA Cell-Uptake [4]: 42 (10 μM) %
- siRNA Cy5 MFI [4]: 34 (10 μM)
- KD ([2]; human monocytes): + (the peptide/siRNA complex had knockdown activity of 80% of the Qneg negative control siRNA (20% reduction in mRNA levels compared to the Qneg negative control))
- siRNA knockdown activity of TNF-α mRNA, in words ([2]; human monocytes): no observable knockdown activity
- viability at 3 h [6]: > 90%

Compound: RQIRIWFQNRRMRWRR-amide (RQIRIWFQNRRMRWRR-NH2) [PN714, PenArg]
- MFI measurement relative to the PN643 positive control, in words [1]: significantly lower
- percent siRNA cell-uptake activity (Table 24) [1]: 43%
